Reference: US20140066498A1, “TRITERPENOID DERIVATIVES, BENZENOID DERIVATIVES, AND PHARMACEUTICAL COMPOSITIONS CONTAINING THE SAME” (National Cheng Kung University, priority 2010, published 2014)
≈ marks a conversion by molar mass, not a printed value.

Legend:
KB (human cancer cell) = assay: Cytotoxicity assay against KB cells in vitro; assay type: cell-based; conditions: NA@20 given for inactive
NADPH oxidase (NOX) [1] = target: NADPH oxidase (NOX) (Mus musculus, UniProt Q61093); assay type: biochemical, murine; conditions: ROS production triggered with NADPH (200 μM), 1-50 μM test drug, BV2 cell lysate; mean ± S.E.M., 3-6 experiments; read-out: IC50 (μM) in NOX activity from BV2 cell lysate
[2] = target: T1, nitric oxide synthase (NOS) (Mus musculus, UniProt P29477); assay: NOS activity: LPS-induced NO production in murine microglial cells (BV2); conditions: read-out: IC50 (μM) in NOS; LPS-induced NO production in BV2 cells, 1-50 μM test drug; mean ± S.E.M.
T1 sequence (P29477 1-1144): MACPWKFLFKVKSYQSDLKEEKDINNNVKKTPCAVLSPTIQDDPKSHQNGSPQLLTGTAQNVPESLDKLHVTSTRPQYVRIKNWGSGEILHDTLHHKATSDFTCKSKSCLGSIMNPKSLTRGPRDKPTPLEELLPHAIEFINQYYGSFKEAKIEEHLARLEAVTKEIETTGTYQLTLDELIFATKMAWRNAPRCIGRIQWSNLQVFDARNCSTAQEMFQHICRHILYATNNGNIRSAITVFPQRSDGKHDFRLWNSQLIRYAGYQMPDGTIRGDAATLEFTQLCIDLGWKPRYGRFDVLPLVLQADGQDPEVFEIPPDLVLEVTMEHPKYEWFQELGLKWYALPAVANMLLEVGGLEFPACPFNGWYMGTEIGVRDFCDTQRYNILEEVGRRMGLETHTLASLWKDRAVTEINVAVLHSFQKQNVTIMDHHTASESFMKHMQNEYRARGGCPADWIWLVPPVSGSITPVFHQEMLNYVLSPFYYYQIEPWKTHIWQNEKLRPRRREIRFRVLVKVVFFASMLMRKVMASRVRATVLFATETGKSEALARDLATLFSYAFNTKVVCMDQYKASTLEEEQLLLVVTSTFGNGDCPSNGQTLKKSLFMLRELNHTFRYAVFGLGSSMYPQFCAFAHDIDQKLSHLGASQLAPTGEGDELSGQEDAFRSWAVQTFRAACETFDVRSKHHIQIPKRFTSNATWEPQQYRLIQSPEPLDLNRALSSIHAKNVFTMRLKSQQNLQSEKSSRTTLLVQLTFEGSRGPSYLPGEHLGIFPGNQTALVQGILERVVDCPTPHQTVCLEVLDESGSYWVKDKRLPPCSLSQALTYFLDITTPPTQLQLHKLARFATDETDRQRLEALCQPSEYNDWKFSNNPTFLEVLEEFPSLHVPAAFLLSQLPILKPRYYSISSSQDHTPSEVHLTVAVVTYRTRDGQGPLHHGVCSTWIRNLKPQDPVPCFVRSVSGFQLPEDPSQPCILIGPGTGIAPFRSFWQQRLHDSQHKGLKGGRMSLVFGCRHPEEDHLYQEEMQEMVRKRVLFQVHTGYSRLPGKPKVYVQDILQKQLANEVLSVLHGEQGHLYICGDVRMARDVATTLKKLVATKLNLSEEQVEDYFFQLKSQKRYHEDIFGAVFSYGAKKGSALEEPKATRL
Method: Microglial cell culture and measurements of mitric oxide (NO). The murine microglial cell line (BV2) was cultured, and the production of NO was measured by the methods as previously described (Wang, Y. H.; Wang, W. Y.; Chang, C. C.; Liou, K. T.; Sung, Y. J.; Liao, J. F.; Chen, C. F.; Chang, S.; Hou, Y. C.; Chou, Y. C.; Shen, Y. C. J. Biomed. Sci. 2006, 13, 127-141).

[3] = test system: KB-VIN (multidrug-resistant strain); assay: Cytotoxicity assay against KB-VIN cells in vitro; assay type: cell-based, human
[4] = test system: Daoy (human medulloblastoma); assay: MTT cytotoxicity assay, Daoy; assay type: cell-based; conditions: Daoy cell line
Method: (§1) Compounds II-7-II-9, II-13, II-14, II-20, II-21, II-25-II-33, and II-36 were assayed for cytotoxic activity against Doay (human medulloblastoma), Hep2 (human laryngeal carcinoma), MCF-7 (human breast adenocarcinoma), and Hela (human cervical epitheloid carcinoma) cell lines, using a MTT assay method.

[5] = test system: MCF-7 (human breast adenocarcinoma); assay: MTT cytotoxicity assay, MCF-7; assay type: cell-based; conditions: MCF-7 cell line
Method: as §1

NADPH oxidase (NOX) [6] = target: NADPH oxidase (NOX) (Homo sapiens, UniProt P04839); assay type: cell-based; conditions: ROS production triggered with fMLP (2 μM), 1-50 μM test drug, peripheral human neutrophils; mean ± S.E.M.; read-out: IC50 (μM) in NOX fMLP-induced NOX activation in PMN
[7] = test system: Hela (human cervical epitheloid carcinoma); assay: MTT cytotoxicity assay, Hela; assay type: cell-based; conditions: Hela cell line
Method: as §1

[8] = test system: Hep2 (human laryngeal carcinoma); assay: MTT cytotoxicity assay, Hep2; assay type: cell-based; conditions: Hep2 cell line
Method: as §1

[9] = test system: P-388 murine leukemia cells; conditions: in vitro, previous studies; cited from earlier work

## C=C(CC[C@@H](C)[C@H]1CC[C@H]2C3=C(C(=O)[C@H](O)[C@]12C)[C@@]1(C)CC[C@@H](O)[C@@H](C)[C@@H]1CC3=O)C(C)C(=O)O (stereo partly drawn) [Compound I-13, zhankuic acid C]
KB (human cancer cell)
  EC50: 15.5 µM
NADPH oxidase (NOX) [1]
  IC50: 40.3 ± 3.5 µM
[2]
  IC50: 16.2 ± 0.9 µM
[3]
  EC50: 6.4 µM

## C=C(CC[C@@H](C)[C@H]1CC[C@H]2C3=C(C(=O)C[C@]12C)[C@@]1(C)CCC(=O)[C@@H](C)[C@@H]1CC3)C(C)C(=O)O (stereo partly drawn) [Compound I-15, antcin A]
[4]
  ED50 (μg/mL) Daoy: 13.2 µg/mL (≈ 29 µM)
KB (human cancer cell)
  EC50: 4.9 µM
NADPH oxidase (NOX) [1]
  IC50: 45.9 ± 7.9 µM
[2]
  IC50: 4.1 ± 0.5 µM
[5]
  ED50 (μg/mL) MCF-7: 13.3 µg/mL (≈ 29.3 µM)
NADPH oxidase (NOX) [6]
  IC50: 29.2 ± 6.7 µM
[3]
  EC50: 10 µM
[7]
  ED50 (μg/mL) Hela: — (ED50 > 20 μg/mL)
[8]
  ED50 (μg/mL) Hep2: — (ED50 > 20 μg/mL)

## C=C(C)C#Cc1c(OC)cc(OC)c(OC)c1C [II-9, antrocamphin A]
[4]
  ED50 (μg/mL) Daoy: 5.9 µg/mL (≈ 24 µM)
NADPH oxidase (NOX) [1]
  IC50: 50.1 ± 3.3 µM
[2]
  IC50: 7.2 ± 1 µM
[5]
  ED50 (μg/mL) MCF-7: 3.4 µg/mL (≈ 13.8 µM)
NADPH oxidase (NOX) [6]
  IC50: 15.1 ± 4.1 µM
[7]
  ED50 (μg/mL) Hela: 6.9 µg/mL (≈ 28 µM)
[8]
  ED50 (μg/mL) Hep2: 10.5 µg/mL (≈ 42.6 µM)

## C=C(CC[C@@H](C)[C@H]1CC[C@H]2C3=C(C(=O)C[C@]12C)[C@@]1(C)CCC(=O)[C@@H](C)[C@@H]1CC3=O)C(C)C(=O)O (stereo partly drawn) [zhankuic acid A]
[9]
  cytotoxicity against P-388 murine leukemia cells: significant cytotoxicity

## C=C(CC[C@@H](C)[C@H]1CC[C@H]2C3=C(C(=O)[C@H](O)[C@]12C)[C@@]1(C)CC[C@@H](O)[C@@H](C)[C@@H]1CC3=O)C(C)C(=O)O (stereo partly drawn) [zhankuic acid C]
[9]
  cytotoxicity against P-388 murine leukemia cells: significant cytotoxicity

## methyl antcinate H [Compound I-18]
KB (human cancer cell)
  EC50 (μM) KB: NA@20
NADPH oxidase (NOX) [1]
  IC50: 16 ± 8.1 µM
[2]
  IC50: 2.5 µM
NADPH oxidase (NOX) [6]
  IC50: 18.1 ± 5.9 µM
[3]
  EC50 (μM) KB-VIN: NA@20
